Laboratory results taken from article PMC10877564, “Activity of Gut-Derived Nisin-like Lantibiotics against Human Gut Pathogens and Commensals” (ACS Chemical Biology, 2024).
Positions of bridges follow the written chain, without caps; N, C: chain ends. Non-standard residues stand in square brackets, D forms with d. No end group written: not given here. Abu = CC[C@H](N)C(=O)O; Dhb = C/C=C(\N)C(=O)O; Dha = C=C(N)C(=O)O

Key:
[1] = test system: S. epidermidis SK135 (MRSE); assay: MIC assay, anaerobic broth dilution; assay type: cell-based, Staphylococcus epidermidis; conditions: BHIS, 37 °C, 48 h, 3-fold serial dilution
Excerpt: (§1) Next, we set out to test the antimicrobial activities of these purified lantibiotics against a panel of Gram-positive bacteria that are representatives of some of the most prevalent human pathogens: VRE, Methicillin-resistant S. aureus USA300 (MRSA), Methicillin-resistant Staphylococcus epidermidis SK135 (MRSE), Listeria monocytogenes 10403S, and Clostridioides difficile VPI10463. We examined the growth of bacteria in a 96-well plate under a concentration gradient of lantibiotics under anaerobic conditions (Figure S2B). […]
(§2) For broth cultures, isolates were grown in pre-reduced BHI supplemented with 5 g/L yeast extract (Difco, BD) and 0.1% L-cysteine under anaerobic condition.
(§3) Minimal Inhibition Concentration (MIC) assay
(§4) All MIC assays were performed under anaerobic condition. Stationary bacterial culture in BHIS (BHI supplemented with 5 g/L yeast extract and 0.1% L-cysteine) were inoculated 1:100 to wells containing 200 µL BHIS in U-bottom 96-well plates. Lantibiotics were dissolved in DPBS, and concentrations were determined by BCA assay (Pierce) according to the manufacturer’s protocol.
(§5) Lantibiotic stock solutions were added to wells to reach desired final concentration, with 3-fold serial dilution across rows to create concentration gradients. Bacteria-inoculated wells without lantibiotics served as control. […]

[2] = test system: panel of Gram-positive human pathogens (VRE, MRSA, MRSE, L. monocytogenes, C. difficile); assay: MIC assay against the panel of Gram-positive human pathogens; assay type: cell-based; conditions: pathogen panel, Figure 3A-E; anaerobic
Excerpt: Next, we set out to test the antimicrobial activities of these purified lantibiotics against a panel of Gram-positive bacteria that are representatives of some of the most prevalent human pathogens: VRE, Methicillin-resistant S. aureus USA300 (MRSA), Methicillin-resistant Staphylococcus epidermidis SK135 (MRSE), Listeria monocytogenes 10403S, and Clostridioides difficile VPI10463. We examined the growth of bacteria in a 96-well plate under a concentration gradient of lantibiotics under anaerobic conditions (Figure S2B).
(§6) Elution Buffer (4 M guanidine hydrochloride, 20 mM Tris HCl, pH 7.5 at 25 °C, 100 mM NaCl, 1 M imidazole). Peptides eluted from the Ni resin were concentrated and desalted using 3 kDa Amicon filters (Millipore). For leader peptide removal, the peptide (1:20 trypsin to peptide) was incubated with the trypsin protease in 50 mM Tris-HCl, pH 8 overnight at 37 °C. Lastly, the core peptides were further purified with HPLC using an Agilent 1200 instrument (Agilent) as specified in general methods. About 1.5 mg recombinant peptide was obtained after HPLC purification per […]
Purification of blauticin from Blautia producta SCSK
Stationary anaerobic culture of BPSCSK was inoculated 1:100 to 1 L BHIS. Culture was incubated on a heating plate at 37 °C with 220 rpm stirring for 2 days in an anaerobic chamber. Bacteria were pelleted with 15,000 x g centrifugation for 15 min. The supernatant was acidified with acetic acid to pH 5.5 and filtered through a 0.22 um filter. Filtered supernatant was loaded onto a HiTrap SP HP column using an AKTA Pure FPLC, which was eluted sequentially with 3 CV of distilled water, 200 mM NaCl, 400 mM NaCl, 600 mM NaCl, 800 mM NaCl, and 1 M NaCl. The 800 mM NaCl eluate was concentrated with a 3 kDa Amicon filter, followed by dialyzation with DPBS using a 3 kDa Amicon filter. Purification of blauticin was confirmed by SDS-PAGE, VRE inhibition in vitro assay, and MALDI-TOF MS. […]
as §2, §3, §4, §5

[3] = test system: E. faecium ATCC700221 (VRE); assay: MIC assay, anaerobic broth dilution; assay type: cell-based, Enterococcus faecium; conditions: BHIS, 37 °C, 48 h, 3-fold serial dilution
Excerpt: as §1, §2, §3, §4, §5

F. fissicatena MSK.9.3 = assay: MIC assay, anaerobic broth dilution; assay type: cell-based, Faecalicatena fissicatena; conditions: BHIS, 37 °C, 48 h, 3-fold serial dilution
Excerpt: Antibiotic treatment may result in collateral damage to commensal bacteria in the human microbiome, leading to dysbiosis and susceptibility to various diseases.[44] How lantibiotics impact Gram-positive commensals from the human gut has remained unclear. Therefore, we performed antimicrobial activity tests of these lantibiotics against selected Gram-positive human gut commensals, most of which belong to the Lachnospiraceae family, one of the most abundant bacterial families in the human gut.[27] In general, human gut commensals were more susceptible to the set of investigated lantibiotics compared to pathogens (Figure 3).
as §6, with “specified” for “specified in general methods. About 1.5 mg recombinant peptide was obtained after HPLC purification per”
in general methods. […]
Isolation of human gut commensal bacteria […]
All MIC assays were performed under anaerobic condition. […] Lantibiotics were dissolved in DPBS, and concentrations were determined by BCA assay (Pierce) according to the manufacturer’s protocol. […]

Question: Which “nisin A MIC” value [1] does the source give for “nisin A (I[Dhb]AI[Dha]LC[Abu]PGCK[Abu]GALMGCNMK[Abu]A[Abu]CHCSIHV[Dha]K; thioether 8-11, 13-19, 23-26, 25-28, 3-7; UniProt P13068 24-57, looked up) [prototypical class I lantibiotic produced by L. lactis, food preservative; commercial nisin A]” here?
Answer: The value was 2.67 µM.

Question: What about the “inhibitory activity against pathogens based on MIC (ranking in words)” value [2] of the same substance?
Answer: The value was “strongest inhibitory activities”.

Question: And the “nisin A MIC” value [3]?
Answer: The value was 1.48 µM.

Question: What about the “nisin A MIC” value (F. fissicatena MSK.9.3) of the same substance?
Answer: Its value is 0.0329 µM.
